For 30 molecules, IC50, inhibition and viability results are on record in ChEMBL document CHEMBL4028822, “Identification and structure activity relationship of novel flavone derivatives that inhibit the production of nitric oxide and PGE2 in LPS-induced RAW 264.7 cells” (Bioorg Med Chem Lett, 2017).

In general, IC50 refers to the concentration that gives 50% inhibition. As a reminder, the inhibition is how much of the control response was suppressed.

Data set [1] relates to RAW264.7. The data set can be described thus: Antiinflammatory activity in mouse RAW264.7 cells assessed as inhibition of LPS-stimulated PGE2 production by ELISA. It counts as functional, cell-based.
Data set [2] concerns RAW264.7. The data set can be described thus: Cytotoxicity against mouse RAW264.7 cells by MTT assay. The data set is classed as cell-based.
Data set [3] concerns RAW264.7. The data set can be described thus: Antiinflammatory activity in mouse RAW264.7 cells assessed as inhibition of LPS-stimulated NO production by ELISA. The data set is classed as functional, cell-based. (An ELISA detects its analyte on a solid surface through an enzyme-linked reagent.)
The subject of data set [4] is RAW264.7. In words: Antiinflammatory activity in mouse RAW264.7 cells assessed as inhibition of LPS-stimulated NO production at 20 uM by ELISA relative to control. The data set is classed as functional.
Data set [5] is described as follows: Cytotoxicity against LPS-stimulated mouse RAW264.7 cells assessed as cell viability at 20 uM by MTT assay (reference value: 100.01 +/- 0.05 %). It counts as cell-based. The settings on record: LPS-stimulated RAW264.7 cells, read-out: Activity. A general note: Formazan colour is commonly taken as a measure of viable cells.
The test system of data set [6] is RAW264.7. The data set can be described thus: Antiinflammatory activity in mouse RAW264.7 cells assessed as inhibition of LPS-stimulated NO production at 10 uM by ELISA relative to control. The data set is classed as functional.
The nature of data set [7]: Cytotoxicity against LPS-stimulated mouse RAW264.7 cells assessed as cell viability at 10 uM by MTT assay (reference value: 100.01 +/- 0.05 %). It counts as cell-based. The settings on record: LPS-stimulated RAW264.7 cells, read-out: Activity.
A short description of data set [8]: Cytotoxicity against LPS-stimulated mouse RAW264.7 cells assessed as cell viability at 5 uM by MTT assay (reference value: 100.01 +/- 0.05 %). It counts as cell-based. The settings on record: LPS-stimulated RAW264.7 cells, read-out: Activity.
Data set [9] relates to RAW264.7. The data set can be described thus: Antiinflammatory activity in mouse RAW264.7 cells assessed as inhibition of LPS-stimulated NO production at 5 uM by ELISA relative to control. It counts as functional.

For `COc1cc(OC)c2c(=O)cc(-c3ccc(O)c(O)c3)oc2c1`, the IC50 was 14 µM in the data set on RAW264.7 [1], over 200 µM in the data set with RAW264.7 [2] and 34.8 µM in the data set with RAW264.7 [3].

As for `O=c1cc(-c2cccc(O)c2)oc2ccccc12`, the inhibition at 20 µM in the data set with RAW264.7 [4] is 17.7%. Besides, the viability at 20 µM in data set [5] is 97%.

With `O=c1cc(-c2ccc(Cl)cc2)oc2ccccc12`, the inhibition at 20 µM in the data set on RAW264.7 [4] was determined as 5.07%. In addition, the viability at 20 µM in data set [5] turned out to be 85.8%.

For `O=c1cc(-c2ccc(C(F)(F)F)cc2)oc2ccccc12`, in the data set on RAW264.7 [4], the inhibition at 20 µM amounted to 10.7%. Also, the viability at 20 µM in [5] was found to be 87.9%.

For the molecule `O=c1cc(-c2ccc(O)c(O)c2)oc2ccccc12`, the IC50 came out at 0.99 µM in the data set on RAW264.7 [1], 45.1 µM with RAW264.7 [2] and 6.29 µM in the data set with RAW264.7 [3]. The inhibition at 10 µM in the data set with RAW264.7 [6] came out at 64.3%. Further, the viability at 10 µM in [7] worked out at 93.6%.

Take `O=c1cc(-c2ccccc2)oc2cc3c(cc12)OCO3`: the inhibition at 20 µM in the data set on RAW264.7 [4] was found to be 20.9%. For the same molecule, the viability at 20 µM in data set [5] came out at 119%.

Regarding `O=c1cc(-c2ccc(-c3ccccc3)cc2)oc2ccccc12`, the inhibition at 20 µM with RAW264.7 [4] amounted to 4.45%. In addition, the viability at 20 µM in [5] worked out at 92.3%.

Take `O=c1cc(-c2ccccc2)oc2ccc([N+](=O)[O-])cc12`: the inhibition at 20 µM with RAW264.7 [4] was determined as 11.9%. In data set [5], the viability at 20 µM turned out to be 90.8%.

As to `O=c1cc(-c2ccc(O)cc2)oc2ccccc12`, the IC50 was 3.77 µM in the data set on RAW264.7 [1], 145 µM with RAW264.7 [2] and 48.3 µM with RAW264.7 [3]. For the same molecule, the inhibition at 20 µM in the data set with RAW264.7 [4] turned out to be 37.5%. Also, the viability at 20 µM in data set [5] stood at 96.1%.

As for `COc1cccc(-c2cc(=O)c3ccccc3o2)c1`, the inhibition at 20 µM in the data set on RAW264.7 [4] turned out to be 15.7%. In [5], the viability at 20 µM stood at 102%.

For the molecule `CC(C)(C)c1ccc(-c2cc(=O)c3ccccc3o2)cc1`, the inhibition at 20 µM with RAW264.7 [4] was found to be 19.5%. For the same molecule, the viability at 20 µM in data set [5] turned out to be 99.1%.

For `O=c1cc(-c2ccc(-c3cccc4ccccc34)cc2)oc2ccccc12`, the inhibition at 20 µM in the data set on RAW264.7 [4] was determined as 11.6%. The viability at 20 µM in [5] was determined as 99.8%.

As for `CC(C)(C)C(=O)Oc1ccc2c(=O)cc(-c3ccccc3)oc2c1`, in the data set on RAW264.7 [4], the inhibition at 20 µM worked out at 28.6%. Moreover, the viability at 20 µM in [5] came to 102%.

On to `COc1ccc(-c2cc(=O)c3ccccc3o2)c(OC)c1`, for which the inhibition at 20 µM in the data set on RAW264.7 [4] came out at 20.9%. For the same molecule, the viability at 20 µM in [5] stood at 107%.

As to `C[Si](C)(C)c1ccc(-c2cc(=O)c3ccccc3o2)cc1`, in the data set on RAW264.7 [4], the inhibition at 20 µM was 18%. Moreover, the viability at 20 µM in data set [5] is 95%.

Regarding `O=c1cc(-c2ccc(F)cc2)oc2ccccc12`, in the data set on RAW264.7 [4], the inhibition at 20 µM worked out at 21.2%. Also, the viability at 20 µM in data set [5] amounted to 92.4%.

Consider `O=c1cc(-c2ccccc2)oc2ccc(F)cc12`, for which the inhibition at 20 µM with RAW264.7 [4] is 20.4%. The viability at 20 µM in [5] was determined as 75.2%.

As for `COc1ccc(-c2cc(=O)c3ccccc3o2)cc1OC` [3',4'-DIMETHOXYFLAVONE], the IC50 in the data set with RAW264.7 [1] stood at 6.46 µM; in the data set on RAW264.7 [2], 39.7 µM; in the data set with RAW264.7 [3], 34.5 µM. Besides, in the data set on RAW264.7 [4], the inhibition at 20 µM turned out to be 33.3%. For the same molecule, the viability at 20 µM in data set [5] is 117%.

Turning to `COc1ccc(-c2cc(=O)c3ccccc3o2)cc1` [4'-METHOXYFLAVONE], the inhibition at 20 µM with RAW264.7 [4] was found to be 8.76%. Besides, the viability at 20 µM in data set [5] stood at 111%.

As to `O=c1cc(-c2ccccc2)oc2ccc(Cl)cc12` [6-CHLOROFLAVONE], the inhibition at 20 µM with RAW264.7 [4] amounted to 26.1%. Also, in [5], the viability at 20 µM was 91.4%.

As to `COc1ccc2oc(-c3ccccc3)cc(=O)c2c1` [6-METHOXYFLAVONE], the inhibition at 20 µM in the data set on RAW264.7 [4] was 22.2%. Further, the viability at 20 µM in data set [5] came out at 116%.

Turning to `Cc1ccc2oc(-c3ccccc3)cc(=O)c2c1` [6-METHYLFLAVONE], in the data set with RAW264.7 [4], the inhibition at 20 µM amounted to 17.4%. The viability at 20 µM in data set [5] is 116%.

On to `COc1ccc2c(=O)cc(-c3ccccc3)oc2c1` [7-METHOXYFLAVONE], for which the inhibition at 20 µM with RAW264.7 [4] came out at 17.7%. The viability at 20 µM in data set [5] turned out to be 133%.

As for `COc1cc(OC)c2c(=O)cc(-c3ccccc3)oc2c1` [CHRYSIN DIMETHYL ETHER], the IC50 with RAW264.7 [1] was 7.43 µM; in the data set on RAW264.7 [2], 65.6 µM; in the data set on RAW264.7 [3], 33.2 µM. For the same molecule, the inhibition at 20 µM with RAW264.7 [4] turned out to be 31.5%. The viability at 20 µM in [5] amounted to 134%.

For `O=c1cc(-c2ccccc2)oc2ccccc12` [FLAVONE], the inhibition at 20 µM with RAW264.7 [4] worked out at 16.3%. Besides, the viability at 20 µM in data set [5] came out at 95.4%.

For `CC(C)Cc1ccc(C(C)C(=O)O)cc1` (centres undefined) [IBUPROFEN], the half-inhibitory concentration (IC50) in the data set on RAW264.7 [1] amounted to 0.39 µM; in the data set on RAW264.7 [2], 3310 µM; with RAW264.7 [3] it was 1480 µM.

Consider `O=c1cc(-c2ccc(O)c(O)c2)oc2cc(O)cc(O)c12` [LUTEOLIN], for which the IC50 with RAW264.7 [1] was 2.87 µM; in the data set on RAW264.7 [2], 18.9 µM; with RAW264.7 [3] it was 5.06 µM. In data set [8], the viability at 5 µM amounted to 98%. Also, the inhibition at 5 µM in the data set with RAW264.7 [9] is 19.5%.

On to `CS(=O)(=O)Nc1ccc([N+](=O)[O-])cc1OC1CCCCC1` [NS-398], for which the IC50 in the data set with RAW264.7 [1] amounted to 6.74 µM.

As to `COc1cc(OC)c2c(=O)cc(-c3ccc(OC)c(OC)c3)oc2c1` [TETRAMETHYLLUTEOLIN], the values for the IC50 in the data set on RAW264.7 [1], with RAW264.7 [2] and in the data set with RAW264.7 [3] were 3.13 µM, 73.9 µM and 32.5 µM, respectively. Further, the inhibition at 20 µM in the data set with RAW264.7 [4] is 37.6%. The viability at 20 µM in [5] was determined as 109%.

As to `COc1ccc(-c2cc(=O)c3c(OC)cc(OC)cc3o2)cc1` [TRIMETHYLAPIGENIN], in the data set with RAW264.7 [4], the inhibition at 20 µM was determined as 27.2%. For the same molecule, in [5], the viability at 20 µM is 103%.
